Paper PMC5474949 (Journal of medicinal chemistry, 2016)
“Also recorded” adds a separate entry of the source.

Experiments:
MDCK-mdr1 cells = experiment: MDCK-mdr1 permeability assay; assay type: in vitro ADME, canine; details: 10 μM apical, 1 h, 37 °C, pH 7.4
hCB1R = hCB1R (Homo sapiens, UniProt P21554); experiment: CB1R radioligand displacement binding assay; details: for Ki: read-out: Ki (nM) hCB1R vs CP55,940, [3H]-CP55940 displacement, Cheng–Prusoff
[1] = tested on: neuropathy induced by unilateral sciatic nerve entrapment (SNE); experiment: SNE-induced mechanical allodynia; assay type: in vivo, rat; details: SNE rats
[2] = tested on: acute nociception in naïve rats; experiment: Tail-flick test; assay type: in vivo, rat
central CB1Rs = experiment: Tetrad CNS side effect tests; assay type: in vivo, rat; details: naïve rats; for CNS side effects in catalepsy, rotarod, hypothermia assays: ip, 0.3 mg/kg and 3-fold higher doses; for CNS side effects in catalepsy, motor incoordination, hypothermia assays: oral, up to 10 mg/kg
[3] = Pharmacokinetics: plasma, brain and CSF levels; details: rat, 0.3 mg/kg ip, ~75 min
[4] = tested on: antiallodynic effect of 2-5u in the SNE neuropathy; experiment: Pretreatment with CB1R/CB2R blockers before 2-5u in SNE rats; assay type: in vivo, rat; details: blocker (2 and 3: 3 mg/kg ip) 30 min before 2-5u 0.6 mg/kg

Sequence of hCB1R (P21554 whole entry): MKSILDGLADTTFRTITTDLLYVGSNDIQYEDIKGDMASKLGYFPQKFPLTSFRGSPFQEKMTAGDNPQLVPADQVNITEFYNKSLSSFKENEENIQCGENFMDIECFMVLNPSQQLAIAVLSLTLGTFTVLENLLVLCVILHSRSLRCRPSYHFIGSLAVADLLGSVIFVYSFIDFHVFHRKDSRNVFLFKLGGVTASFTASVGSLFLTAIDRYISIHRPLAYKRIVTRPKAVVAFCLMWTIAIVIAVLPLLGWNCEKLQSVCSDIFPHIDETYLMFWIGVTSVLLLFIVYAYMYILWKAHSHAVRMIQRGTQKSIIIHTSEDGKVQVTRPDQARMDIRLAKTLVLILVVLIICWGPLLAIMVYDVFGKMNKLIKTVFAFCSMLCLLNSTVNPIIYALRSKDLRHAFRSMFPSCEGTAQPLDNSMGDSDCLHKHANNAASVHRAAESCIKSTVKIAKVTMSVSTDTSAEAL

CCCCCn1cc(C(=O)c2cccc3ccccc23)c2c(F)cccc21 [1-4h, 4-Fluoro-3-[(naphthalen-1-yl)carbonyl]-1-pentyl-1H-indole]
MDCK B/A ratio (basolateral:apical) (MDCK-mdr1 cells): 0.000

(1E)-3-hexyl-1-(2-phenylethylidene)-1H-indene [2-7c]
Ki (hCB1R): 4410 nM | loss of hCB1R affinity versus 2-7a (hCB1R; versus 2-7a (pentyl)): 256 fold | loss of hCB1R affinity versus 2-7b (hCB1R; versus naphthylidene analogue 2-7b (n-hexyl)): 10 fold

N-(3-Carboxybutyl)-3-(1-naphthoyl)-1H-indole [1-4g]
Ki (hCB1R): > 10000 nM

CCCCCn1cc(C(=O)c2ccc(C(=O)OC)c3ccccc23)c2ccccc21 [1-4a, Methyl 4-[(1-Pentyl-1H-indol-3-yl)carbonyl]naphthalene-1-carboxylate]
MDCK B/A ratio (basolateral:apical) (MDCK-mdr1 cells): 0.00

COc1ccc(/C=C2\C=C(CCN3CCOCC3)c3ccccc32)c2ccccc12 [2-5j, 4-{2-[(1E)-1-[(4-Methoxynaphthalen-1-yl)methylidene]-1H-inden-3-yl]ethyl}morpholine]
suppression of SNE-induced mechanical allodynia ([1]; 0.3 mg/kg ip, 0.3 mg/kg): large, reversible decreases in mechanical allodynia; also recorded: complete suppression of mechanical allodynia symptoms | effect in tail-flick assay ([2]; oral): small effects in the tail-flick assay | MDCK B/A ratio (basolateral:apical) (MDCK-mdr1 cells): 0.000 | CNS side effects in catalepsy, rotarod, hypothermia assays (central CB1Rs): no effect in the assays of CNS CB1R activation | CNS side effects in catalepsy, motor incoordination, hypothermia assays (central CB1Rs): relative lack of side effects in the catalepsy, motor incoordination, and hypothermia assays

CCc1ccc(/C=C2\C=C(CCN3CCOCC3)c3ccccc32)c2ccccc12 [2-5t, 4-{2-[(1E)-1-[(4-Ethylnaphthalen-1-yl)methylidene]-1H-indenyl]-ethyl}morpholine]
effect in tail-flick assay ([2]; oral): small effects in the tail-flick assay | MDCK B/A ratio (basolateral:apical) (MDCK-mdr1 cells): 0.000 | CNS side effects in catalepsy, motor incoordination, hypothermia assays (central CB1Rs): relative lack of side effects in the catalepsy, motor incoordination, and hypothermia assays

C1=C(CCN2CCOCC2)c2ccccc2/C1=C/c1cccc2ccccc12 [2-5a, 4-{2-[(1E)-1-(Naphthalen-1-ylmethylidene)-1H-inden-3-yl]ethyl}-morpholine]
suppression of SNE-induced mechanical allodynia ([1]; 0.3 mg/kg ip, 0.3 mg/kg): much smaller effect; also recorded: considerably smaller increases in thresholds than 2-5u or 2-5j

CCCc1ccc(/C=C2\C=C(CCN3CCOCC3)c3ccccc32)c2ccccc12 [2-5u, 4-{2-[(1E)-1-[(4-Propylnaphthalen-1-yl)methylidene]-1H-inden-3-yl]ethyl}morpholine]
suppression of SNE-induced mechanical allodynia ([1]; 0.3 mg/kg ip, 0.3 mg/kg): large, reversible decreases in mechanical allodynia; also recorded: ipsilateral thresholds are increased to levels of predrug contralateral thresholds; also recorded: complete suppression of mechanical allodynia symptoms | suppression of SNE-induced mechanical allodynia ([1]; 3 mg/kg oral, 3 mg/kg): reversibly suppresses SNE neuropathy symptoms; also recorded: effective in suppressing neuropathy symptoms after oral administration; also recorded: complete suppression of allodynia symptoms at peak effect | effect in tail-flick assay ([2]; ip (2-5u 0.3 mg/kg)): small effect in the tail-flick assay; also recorded: small analgesic effect; also recorded: small effects on acute nociception | effect in tail-flick assay ([2]; oral): small effects in the tail-flick assay | MDCK B/A ratio (basolateral:apical) (MDCK-mdr1 cells): 0.000 | CNS penetration (plasma, brain, CSF samples) [3]: minimal penetration of 2-5u into the CNS | CNS side effects in catalepsy, rotarod, hypothermia assays (central CB1Rs; 0.3 mg/kg): lack effects in the catalepsy, rotarod, or hypothermia assays; also recorded: no effect in the assays of CNS CB1R activation | CNS side effects in catalepsy, motor incoordination, hypothermia assays (central CB1Rs): relative lack of side effects in the catalepsy, motor incoordination, and hypothermia assays; also recorded: no significant effect on central CB1Rs

CCCCCC1=C/C(=C\c2cccc3ccccc23)c2ccccc21 [2-7a, 1-{[(1E)-3-pentyl-1H-inden-1-ylidene]methyl}naphthalene, reference compound]
MDCK B/A ratio (basolateral:apical) (MDCK-mdr1 cells): 0.04

CCCCCn1cc(C(=O)c2cccc3ccccc23)c2cc(F)ccc21 [1-4i, 5-Fluoro-3-[(naphthalen-1-yl)carbonyl]-1-pentyl-1H-indole]
MDCK B/A ratio (basolateral:apical) (MDCK-mdr1 cells): 0.000

N-(3-Ethoxycarbonylbutyl)-3-(1-naphthoyl)-1H-indole [1-4e]
Ki (hCB1R): 1470 nM

CCCCCn1cc(C(=O)c2cccc3ccccc23)c2cccc(F)c21 [1-4k, 7-Fluoro-3-[(naphthalen-1-yl)carbonyl]-1-pentyl-1H-indole]
MDCK B/A ratio (basolateral:apical) (MDCK-mdr1 cells): 0.000

CCCCCn1cc(C(=O)c2cccc3ccccc23)c2ccc(F)cc21 [1-4j, 6-Fluoro-3-[(naphthalen-1-yl)carbonyl]-1-pentyl-1H-indole]
MDCK B/A ratio (basolateral:apical) (MDCK-mdr1 cells): 0.000

CCCCCCC(C)(C)c1cc(O)c2c(c1)OC(C)(C)[C@@H]1CC=C(CO)C[C@@H]21 [compound 1, reference compound]
CNS side effects in catalepsy (ring), core temperature, rotarod tests (central CB1Rs; 0.01 mg/kg ip, positive control, 0.01 mg/kg): strong CNS side effects; also recorded: profound CNS side effects

COC(=O)c1ccc(C(=O)c2cn(CCN3CCOCC3)c3ccccc23)c2ccccc12 [1-4o]
MDCK B/A ratio (basolateral:apical) (MDCK-mdr1 cells): 1.02

Cc1c(C(=O)NN2CCCCC2)nn(-c2ccc(Cl)cc2Cl)c1-c1ccc(Cl)cc1 [compound 2]
effect of pretreatment on antiallodynic effect of 2-5u [4]: completely blocked the antiallodynic effect of 2-5u; also recorded: completely blocks the response to 2-5u
